What all share (type): in vivo
One assay relates to Sinapis. Description: Post-emergence test, greenhouse. Conditions: Sinapis, 0,25 kg/ha, rated after three weeks vs untreated control. An excerpt:
(§1) Lösungsmittel: 5 Gewichtsteile Aceton Emulgator: 1 Gewichtsteil Alkylarylpolyglykolether
(§2) Zur Herstellung einer zweckmäßigen Wirkstoffzubereitung vermischte man 1 Gewichtsteil Wirkstoff mit der angegebenen Menge Lösungsmittel, gab die angegebene Menge Emulgator zu und verdünnte das Konzentrat mit Wasser auf die gewünschte Konzentration.
(§3) Mit der Wirkstoffzubereitung spritzte man Testpflanzen, welche eine Höhe von 5 - 15 cm hatten so, daß die jeweils gewünschten Wirkstoffmengen pro Flächeneinheit ausgebracht wurden. Die Konzentration der Spritzbrühe wurde so gewählt, daß in 2000 1 Wasser/ha die jeweils gewünschten Wirkstoffmengen ausgebracht wurden. Nach drei Wochen wurde der Schädigungsgrad der Pflanzen bonitiert in % Schädigung im Vergleich zur Entwicklung der unbehandelten Kontrolle.
(§4) Es bedeuten: • 0 % = keine Wirkung (wie unbehandelte Kontrolle) • 100 % = totale Vernichtung

A further assay has as its system Poa. Description: Post-emergence test, greenhouse. Conditions: Poa, 0,25 kg/ha, rated after three weeks vs untreated control.
Excerpt: as §1, §2, §3, §4

In assay [1] the test system is Chenopodium. Description: Post-emergence test, greenhouse. Particulars: Chenopodium, 0,25 kg/ha, rated after three weeks vs untreated control.
Excerpt: as §1, §2, §3, §4

Another assay has as its system Echinochloa. The experiment in a line: Post-emergence test, greenhouse. Particulars: Echinochloa, 0,25 kg/ha, rated after three weeks vs untreated control.
Excerpt: as §1, §2, §3, §4

The next assay deals with Mais. The experiment in a line: Post-emergence test, greenhouse. Particulars: Mais, 0,25 kg/ha, rated after three weeks vs untreated control.
Excerpt: as §1, §2, §3, §4

Assay [2] relates to Baumwolle. The experiment in a line: Post-emergence test, greenhouse. Conditions: Baumwolle, 0,25 kg/ha, sprayed on plants 5 - 15 cm high, rated after three weeks vs untreated control (0 % = no effect, 100 % = total destruction).
Excerpt: as §1, §2, §3, §4

For the next assay, the system named is Solanum. The experiment in a line: Post-emergence test, greenhouse. Particulars: Solanum, 0,25 kg/ha, rated after three weeks vs untreated control.
Excerpt: as §1, §2, §3, §4

Another assay deals with Weizen. Description: Pre-emergence test, greenhouse. Conditions: Weizen, 1,0 kg/ha, rated after three weeks vs untreated control.
Excerpt: as §1, §2
(§5) Samen der Testpflanzen wurden in normalen Boden ausgesät und nach 24 Stunden mit der Wirkstoffzubereitung begossen. Dabei wurde die Wassermenge pro Flächeneinheit zweckmäßigerweise konstant gehalten. Die Wirkstoffkonzentration in der Zubereitung spielte keine Rolle, entscheidend war nur die Aufwandmenge des Wirkstoffs pro Flächeneinheit. Nach drei Wochen wurde der Schädigungsgrad der Pflanzen bonitiert in % Schädigung im Vergleich zur Entwicklung der unbehandelten Kontrolle. Es bedeuten: • 0 % = keine Wirkung (wie unbehandelte Kontrolle) • 100 % = totale Vernichtung

Assay [3] relates to Chenopodium. Description: Pre-emergence test, greenhouse. Conditions: Chenopodium, 1,0 kg/ha, rated after three weeks vs untreated control.
Excerpt: as §1, §2, §5

Assay [4] deals with Baumwolle. Description: Pre-emergence test, greenhouse. Conditions: Baumwolle, 1,0 kg/ha, rated after three weeks vs untreated control (0 % = no effect, 100 % = total destruction).
Excerpt: as §1, §2, §5

The subject of the next assay is Stellaria. Description: Pre-emergence test, greenhouse. Particulars: Stellaria, 1,0 kg/ha, rated after three weeks vs untreated control.
Excerpt: as §1, §2, §5

A further assay has as its system Portulak. Description: Pre-emergence test, greenhouse. Particulars: Portulak, 1,0 kg/ha, rated after three weeks vs untreated control.
Excerpt: as §1, §2, §5

The subject of the next assay is Matricaria. The experiment in a line: Pre-emergence test, greenhouse. Conditions: Matricaria, 1,0 kg/ha, rated after three weeks vs untreated control.
Excerpt: as §1, §2, §5

In the next assay the test system is Cynodon. The experiment in a line: Pre-emergence test, greenhouse. Particulars: Cynodon, 1,0 kg/ha, rated after three weeks vs untreated control.
Excerpt: as §1, §2, §5

The subject of a further assay is Datura. Description: Pre-emergence test, greenhouse. Particulars: Datura, 1,0 kg/ha, rated after three weeks vs untreated control.
Excerpt: as §1, §2, §5

The structures appear in SMILES notation.

This note sets out measurements from patent publication EP0251013A2, “Fluorine containing o-aminophenols” (BAYER AG, priority 1986, dated 1988).

For the molecule `FC(Cl)(Cl)Sn1c(C(F)(F)F)nc2cc(C(F)(F)F)c(Cl)cc21` [Beispiel 13, 1-Dichlorfluormethylsulfenyl-2,5-bis(trifluormethyl)-6-chlorbenzimidazol], the “Schädigungsgrad der Pflanzen in % Schädigung” value in the assay with Sinapis is 100%; in the assay with Poa, 100%; with Chenopodium [1], 100%; in the assay on Echinochloa, 80%; in the assay on Mais it was 50%; with Baumwolle [2], 20%. The “Schädigungsgrad der Pflanzen in % Schädigung” value with Solanum was found to be 100%; in the assay on Weizen it was 0%; with Chenopodium [3] it was 100%; in the assay with Baumwolle [4] it was 0%; with Stellaria, 80%; in the assay with Portulak, 100%. Besides, the “Schädigungsgrad der Pflanzen in % Schädigung” value is on record as 80% in the assay with Matricaria, 100% with Cynodon and 80% with Datura.
